Reference: patent publication US20250122541A1, “ENZYMATIC AND CHEMICAL CATALYSIS FOR PRODUCTION FROM GLUCOSE OF THE PHARMACEUTICAL PRECURSOR, S-3-HYDROXY- Y -BUTYROLACTONE HBL” (The United States, as represented by the Secretary of …, priority 2023, published 2025)
Values joined by “and” are separate entries in the source; they are usually repeats but may differ in a detail not shown here. Identical values can stand only once.

Assays:
[1] = Half-life of BPP followed spectroscopically at 265 nm; assay type: physicochemical; settings: phosphate buffer (enzyme-free ultrafiltrate of the reaction), pH 6, 0.1 M phosphate, first-order decay, after removal of D1*D2D3 by ultrafiltration, read-out: half-life (t1/2)
Procedure: The synthesis and t1/2 of BPP was determined spectroscopically at 265 nm. The synthesis of BPP with D1*D2D3 sonicate and 10 mM glucosone in a 500 μL reaction was followed until the absorbance reached ˜1.4 (about 14 minutes). The reaction was then passed through a 3,000 MWCO Nanosep centrifugal filter (PALL Life Sciences) by centrifuging for 4 minutes at 14,000×g and 200 μL of filtrate followed at A265 every 4 s. The decay of A265 was normalized to the highest and lowest measured values, with the highest A265 set to 1 and the lowest to 0. To determine whether the t1/2 was 0th, 1st or 2nd order, the natural log of the data was plotted against time. After determining that the decay followed 1st-order decay, t1/2 was calculated using the Solver add-in for Microsoft Excel, minimizing the sum of squared differences between the measured and modeled data calculated using Equation 1.

[2] = Partition coefficient of HBL extraction from aqueous solution into organic solvent (GC/FID); assay type: physicochemical
Description: One potential application of HBL, which may have high value, is as a pharmaceutical precursor, which depends on its enantiomeric purity. To identify the chirality of the HBL produced by the above process, gas chromatography (GC) with flame ionization detection (FID) was applied using a MilliporeSigma® Supelco® ß-Dex 255 capillary GC column containing a chiral stationary phase of 2,3-diO-acetyl-6-0-TBDMS-ß-cyclodextrin. (MilliporeSigma and Supelco are registered trademarks of Merck KGaA of Darmstadt, Germany) This column successfully separated the enantiomers of HBL, although the retention times depended on the solvent in which the HBL was dissolved. Based on the reaction network from glucose to HBL, the chirality should be preserved at the C-5 position (FIG. 1). The reaction product solution was extracted with ethyl acetate, and the organic phase analyzed by GC/FID. […] The partition coefficient of HBL extraction into ethyl acetate was 0.1±0.02, and quantification of the HBL in the ethyl acetate coupled with this partition coefficient leads to an overall yield of HBL from glucose of 90%, which is limited by equilibrium, vide supra. HBL can also be extracted into THE, with a partition coefficient of 1.3±0.5, and propylene carbonate, with a partition coefficient of 0.5±0.1.

| SMILES | half-life [1] [min] | partition coefficient of HBL extraction into THF ([2]; THF (printed THE) / aqueous solution) | partition coefficient of HBL extraction into ethyl acetate ([2]; ethyl acetate / aqueous reaction product solution) | partition coefficient of HBL extraction into propylene carbonate ([2]; propylene carbonate / aqueous solution) |
| --- | --- | --- | --- | --- |
| O=C1C(O)=C[C@@H](CO)OC1O (stereo partly shown) [BPP] | 3.7 | – | – | – |
| O=C1C[C@H](O)CO1 [HBL, (S)-3-hydroxy-γ-butyrolactone] | – | 1.3 and 1.3±0.5 | 0.1 and 0.1±0.02 | 0.5±0.1 |
